Entries after “also recorded” stand apart in the source; their conditions may differ.
Tests used:
[1] = target: HLA-A*0201 molecule of T2 cells (Homo sapiens, UniProt P04439, D140Y/D185E/D98H/E176V/E277Q/G131W/G231S/I119V/I121R/I166T/I218V/L300P/L318F/N151K/N90K/P208A/P217A/Q86G/Q94H/R138H/R169H/T345S); test: MHC-peptide complex stabilization assay on T2 cells; format: binding; parameters: key: FI = (MFI sample − MFI background) / MFI background; conditions: serum-free RPMI 1640, 1 h 37°C, 12 h 26°C, 3 h 37°C, FITC anti-HLA-A*0201, flow cytometry, FI = (MFI sample - MFI background)/MFI background
Experimental: Figure 1 The affinity of candidate epitopes for HLA-A*0201 molecules. T2 cells were incubated in RPMI 1640 medium lacking peptides (red) or containing low peptide (1 μg/ml) (green) or intermediate peptide (10 μg/ml) (purple) or high peptide (100 μg/ml) (blue) for 15 h and stained with FITC-conjugated anti-HLA-A*0201 antibody. Then, mean fluorescence intensity (MFI) was measured using flow cytometry.
The ability of peptides to stabilize MHC molecules on the surface of T2 cells was measured as described previously. T2 cells (2 × 10^5 cells/0.5 ml) were incubated in serum-free RPMI 1640 medium in the presence of different concentrations of peptide (1, 10, 100 μg/ml) for 1 h at 37°C/5% CO2 incubator. Cells were then incubated at 26°C for 12 h, and then returned to 37°C for a 3 h incubation. Finally, T2 cells were stained with FITC-conjugated anti-HLA-A*0201 antibody (BD Pharmingen, USA) for 40 min at 4°C. T2 cells incubated in serum-free RPMI 1640 medium without peptides served as a negative control (background). Mean fluorescence intensity (MFI) of T2 cells was recorded with a FACS Calibur flow cytometer (BD bioscience, USA), and results expressed as fluorescence index (FI). The following formula was used to calculate the FI.
(1) FI=MFI sample-MFI background/MFI background

[2] = tested on: HLA-A*0201 transgenic mice; test: IFN-γ ELISPOT assay on splenocytes of peptide-immunized mice; format: in vivo; conditions: mice immunized s.c. with peptide 50 μg/mouse in Freund's adjuvant, 5 weekly doses, splenocytes stimulated with cognate peptide 10 μg/ml, 24 h, background subtracted, mean ± SD, 4 mice/group
Experimental: (§1) HLA-A*0201 transgenic mice were subdivided into 12 groups (4 mice/group). Mice were inoculated subcutaneously with high-affinity peptide (50 μg/mouse) emulsified in Freund’s complete adjuvant. One week later, mice were immunized with the same peptide emulsified in Freund’s incomplete adjuvant. Mice were boosted three more times at weekly intervals. Mock-immunized (adjuvant alone) HLA-A*0201 transgenic mice and peptide-immunized C57BL/6 mice served as controls. One week after the final immunization, all mice were sacrificed and splenocytes extracted. ELISPOT and ICS assays were conducted to detect the frequencies of peptide-specific IFN-γ-producing cells. All animal were performed following the Institutional Animal Care and Use Committee-approved protocols.
Splenocytes were resuspended to a final concentration of 1 × 10^6 cells/ml in RPMI 1640 medium supplemented with 10% fetal bovine serum (FBS). ELISPOT assays were performed in pre-coated 96-well plates (U-CyTech Company, Netherlands). Splenocytes were seeded at 1 × 10^5 cells/well and exposed to either cognate or heterologous peptide at a final concentration of 10 μg/ml. Negative control wells contained splenocytes but no peptide. Positive control wells included cells plus phytohemagglutinin (PHA) at a final concentration of 10 μg/ml. All tests were carried out in duplicate wells, with plates incubated for 24 h at 37°C/5% CO2. Plates were washed and then incubated with biotinylated anti-mouse IFN-γ for 1 h at 37°C. After washing, plates were labeled with streptavidin-horseradish peroxidase, and developed using fresh ACE solution as a substrate. IFN-γ spots were counted using an ELISPOT reader (Beijing SageCreation Science Co. Ltd, Beijing, China). Peptide-specific T-cell frequency was expressed as SFCs/1 × 10^5 splenocytes. Background spots (negative control wells) were subtracted from test wells. A positive response to a peptide was defined as having > 5 SFCs/1 × 10^5 splenocytes after subtraction of the background.

[3] = tested on: HLA-A*0201 transgenic mice; test: ICS assay for CD8+ IFN-γ+ T cells in splenocytes of peptide-immunized mice; format: in vivo, mouse; conditions: for ICS CD8^+IFN-γ^+T cells, proportion in CD8^+ T cells: mice immunized s.c. with peptide 50 μg/mouse in Freund's adjuvant, 5 weekly doses, splenocytes stimulated with cognate peptide 10 μg/ml, 6 h, brefeldin A, CD3+CD8+ gate, mean ± SD, 4 mice/group, SD; for Cross-reactivity of peptide-specific CD8^+ T cells towards heterologous variant peptides: splenocytes of peptide-immunized mice stimulated with heterologous peptide 10 μg/ml, ELISPOT and ICS (Figures 4 and 7), result in words
Experimental: as §1
Splenocytes were cultured with either cognate peptide (10 μg/ml) or heterologous peptide (10 μg/ml) in a 1.5 ml microcentrifuge tube for 6 h at 37°C/5% CO2. […] During the last 5 h, brefeldin A (10 μg/ml) was added to each tube. After a 6 h incubation, cells were washed and then stained with APC-conjugated anti-mouse CD3 and FITC-conjugated anti-mouse CD8 antibodies (eBioscience company, USA) for 40 min at 4°C. Cells were then washed and fixed with 4% paraformaldehyde for 20 min at 4°C, permeabilized using 0.5% saponin for 10 min at 4 °C, and stained with PE-conjugated anti-mouse IFN-γ antibody (eBioscience company, USA) for 40 min at 4°C. A FACS Calibur flow cytometer (BD Bioscience, USA) was used to analyze labeled cells. CD3^+ CD8^+ T cells were gated and the proportion of IFN-γ-producing CD8^+ T cells (CD8^+ IFN-γ^+ T cells) as a subset of all CD8^+ T cells were determined.

Sequence | FI (fluorescence index) ([1]; peptide 1 μg (1 μg/ml)) | FI (fluorescence index) ([1]; peptide 10 μg (10 μg/ml)) | FI (fluorescence index) ([1]; peptide 100 μg (100 μg/ml)) | ELISPOT IFN-γ spot-forming cells [2] [SFCs/1×10^5cells] | ICS CD8^+IFN-γ^+T cells, proportion in CD8^+ T cells [3] [%] | FI (fluorescence index) ([1]; peptide 100 μg (100 μg/ml), listed as D3V-NS4b182–190) | Cross-reactivity of peptide-specific CD8^+ T cells towards heterologous variant peptides [3] | FI (fluorescence index) ([1]; peptide 100 μg (100 μg/ml), listed as D4V-NS4b179–187) | FI (fluorescence index) ([1]; peptide 100 μg (100 μg/ml), listed as D1V-NS4b183–191) | FI (fluorescence index) ([1]; peptide 100 μg (100 μg/ml), listed as D2V-NS4b182–190) | FI (fluorescence index) ([1]; peptide 100 μg (100 μg/ml), listed as D2V-NS2a144–152) | FI (fluorescence index) ([1]; peptide 100 μg (100 μg/ml), listed as D1V-NS2a144–152) | FI (fluorescence index) ([1]; peptide 100 μg (100 μg/ml), listed as D3V-NS2a144–152)
AILTVVAAT [D2V-NS4a140-148, D2V variant peptide of D1V-NS4a140-148, nonapeptide …] | 0.1 | 0.2 | 1.2 | 10 ± 3 | 0.12 ± 0.05 |  |  |  |  |  |  |  | 
AMVLSIVSL [D1V-NS2a169-177] | 0.03 | 0.05 | 0.04 |  |  |  |  |  |  |  |  |  | 
GILTLAAIV [D3V-NS4a140-148, D3V variant peptide of D1V-NS4a140-148, nonapeptide …] | 0.1 | 0.15 |  | 37 ± 6 | 0.37 ± 0.08 |  |  |  |  |  |  |  | 
LLMRTSWAL [D3V-NS4b182-190, D3V variant peptide of D1V-NS4b183-191, nonapeptide …] | 0.22 | 0.65 | 3.6 | 24 ± 5 | 0.27 ± 0.07 | > 1 | cross-reacted with each other |  |  |  |  |  | 
LLMRTTWAF [D4V-NS4b179-187, D4V variant peptide of D1V-NS4b183-191, nonapeptide …] | 0.2 | 0.59 | 4.4 | 22±4 | 0.16 ± 0.06 |  | cross-reacted with each other | > 4 |  |  |  |  | 
LLMRTTWAL [D1V-NS4b183-191] | 0.29 | 0.4 | 1.95 | 42 ± 7 | 0.44 ± 0.09 |  | marked cross-reactivity; also recorded: cross-reacted with each other |  | exceeds 1 |  |  |  | 
LMMRTTWAL [D2V-NS4b182-190, D2V variant peptide of D1V-NS4b183-191, nonapeptide …] | 0.58 | 3.42 | 4.8 | 37 ± 5 | 0.37 ± 0.09 |  | cross-reacted with each other |  |  | > 4 |  |  | 
LVMAFMAFL [D1V-C46-54] | 0.01 | 0.02 | 0.02 |  |  |  |  |  |  |  |  |  | 
MLLALIAVL [D1V-NS4a56-64] | 0.05 | 0.05 | 0.08 |  |  |  |  |  |  |  |  |  | 
QLAVTIMAI [D2V-NS2a144-152, D2V variant peptide of D1V-NS2a144-152, nonapeptide …] | 0.24 | 0.39 | 3.85 | 21±3 | 0.21 ± 0.05 |  |  |  |  |  | > 1 |  | 
QLWAALLSL [D1V-NS2a144-152] | 0.05 | 0.22 | 1.12 | 36 ± 6 | 0.41 ± 0.07 |  |  |  |  |  |  | exceeds 1 | 
QLWTALVSL [D3V-NS2a144-152, D3V variant peptide of D1V-NS2a144-152, nonapeptide …] | 0.2 | 0.45 | 2.6 | 62 ± 9 | 0.79 ± 0.15 |  |  |  |  |  |  |  | > 1
QVGTLALSL [D4V-NS2a143-151, D4V variant peptide of D1V-NS2a144-152, nonapeptide …] | 0.22 | 0.2 | 0.8 | 12 ± 3 | 0.13 ± 0.06 |  |  |  |  |  |  |  | 
TILTIIGLI [D4V-NS4a140-148, D4V variant peptide of D1V-NS4a140-148, nonapeptide …] | 0.15 | 0.3 | 1.08 | 17 ± 5 | 0.21 ± 0.05 |  |  |  |  |  |  |  | 
